According to patent US11166940B2, “Treatment of cardiac disorders by blocking SK4 potassium channel” (Ramot at Tel-Aviv University Ltd., priority 2016, dated 2021):

Legend:
[1] = tested on: T type and L-type Ca2+ currents; assay: Selectivity: voltage-ramp protocol in hESC-CMs, zero free Ca2+ in pipet; format: cell-based, human; conditions: 5 μM TRAM-34; zero free Ca2+ in pipet solution; n=7
Procedure: The experiments were performed in zero free Ca2+ in the pipet solution.

normal hiPSC-CMs = assay: Spontaneous APs in hiPS-CMs derived from normal individuals; format: cell-based, human; conditions: 5 μM TRAM-34 added to 3 μM isoproterenol
Procedure: (§1) In all experiments, the coverslips were perfused at 33° C. with an external solution containing (in mM): 140 NaCl, 4 KCl, 11 Glucose, 1.2 MgCl2, 1.8 CaCl2, 5.5 HEPES titrated to pH 7.4 with NaOH and adjusted at 320 mOsm with sucrose.
FIG. 4E (Left) presents representative traces of spontaneous APs recorded in hiPS-CM derived from a normal individual. […] FIG. 4E (Right) are bar graphs presenting data summary of pacing rate (normalized to Ctrl; one-way ANOVA **P=0.0071, n=14), DD slope (paired t-test, ***P<0.0001, n=14) and APD50 (one-way ANOVA *P=0.0243, n=18).

If and INCX currents = conditions: 5 μM TRAM-34; cited from earlier work
SAN cells = assay: Spontaneous APs / pacing rate of isolated SAN cells from WT mice (patch clamp); format: cell-based, mouse; conditions: 2 μM TRAM-34 added to 50 nM isoproterenol
Procedure: (§2) WT and CASQ2 D307H KI mice were anesthetized with isofluorane and sacrificed by cervical dislocation. The heart was rapidly removed and transferred into Tyrode solution containing heparin. […] The area was cleaned, cut into small strips and washed into a Low Calcium Solution, containing (in mM): 140 NaCl, 5.4 KCl, 0.5 MgCl2, 1.2 KH2PO4, 5 HEPES-NaOH, 50 taurine, 5.5 glucose (pH 6.9). The osmolarity was adjusted if needed to 315 mOsm.
The same solution, supplemented with 1 mg/ml albumin, 200 μM CaCl2, collagenase Type I (Worthington) or liberase TH (Roche), protease (Sigma) and elastase (Sigma) was used for enzymatic digestion as previously described [See, Mesirca, P., et al. Nat Commun 5, 4664 (2014)]. In this step, the tissue was gently resuspended with a polished Pasteur pipette in this solution for 9-13 minutes at 37° C. SAN samples were then washed three times in a modified “Kraftbrühe” solution, containing (in mM): 70 glutamic acid, 80 KOH, 20 KCl, 10 γ-Hydroxybutyric acid sodium salt, 10 KH2PO4, 10 HEPES-KOH, 10 taurine, 1 mg/ml albumin, 0.1 EGTA-KOH (pH 7.2). The same solution was used to re-suspend the single cells with a pipet by vigorous up and down, between 3 to 5 minutes at 37° C. Cells were then gradually exposed to increasing concentrations of calcium, following a “Ca^2+ readaptation” protocol [Mesirca et al., 2014, supra]. Experiments were performed the same day at 33° C.
as §1
The spontaneous automaticity of isolated SAN cells was recorded under perforated-patch conditions by adding 30 μM β-escin49 to the intracellular solution containing (in mM): 130 KCl, 10 NaCl, 10 HEPES, 0.2 EGTA-KOH, 2 MgATP, 6.6 Phosphocreatine, 0.05 cAMP and 1 μM free Ca^2+ (pH 7.2). To record SK4 K+ current, a voltage ramp protocol was applied. SAN and hiPS-CMs were held at −40 mV and −20 mV, respectively to substantially inactivate voltage-gated Na^+ and Ca^2+ currents. Cells were stepped from −90 mV to +60 mV for 150 ms. Then, a cocktail (solution 1) containing (in mM) 0.3 cadmium, 0.025 ZD-7288 and 0.01 E-4031 was applied extracellularly to inhibit residual L-type and T-type voltage-gated Ca2+ currents, If and the IKr currents, respectively. […] For voltage-clamp recording of SAN cells, the intracellular solution was the same to that described above for recording spontaneous automaticity.
The spontaneous electric activity of the cell was recorded in the current clamp configuration of the patch clamp technique before (black trace) and during (violet trace) exposure to 2 μM clotrimazole.
FIG. 5E (Left) presents representative traces of spontaneous APs recorded in single SAN cell from WT mice.

CPVT2 hiPSC-CMs = assay: Spontaneous APs and DADs in hiPS-CMs derived from CPVT2 (CASQ2 D307H) patients; format: cell-based, human; conditions: 5 μM TRAM-34 added to 3 μM isoproterenol
Procedure: as §1
FIG. 4F (Left) presents representative traces of spontaneous APs recorded in hiPS-CM derived from a CPVT2 (CASQ2 D307H) patients. From a regular pacing (black trace), DADs appeared when the cell was exposed to 3 μM isoproterenol (red trace, arrows). […] The suppression of cell 540 automaticity was reversible upon washout (blue trace). FIG. 4F (Right) present bar graphs showing data summary of pacing rate (n=17), on APD50 (n=17) and DADs (Normalized to Ctrl; one-way ANOVA***P=0.0001, n=15).

[2] = tested on: SAN cells from CASQ2-D307H KI mice; assay: Spontaneous APs and DADs of isolated SAN cells from CASQ2 D307H KI mice; format: cell-based, mouse; conditions: 2 μM TRAM-34 added to 50 nM isoproterenol
Procedure: as §2
The same solution, supplemented with 1 mg/ml albumin, 200 μM CaCl2, collagenase Type I (Worthington) or liberase TH (Roche), protease (Sigma) and elastase (Sigma) was used for enzymatic digestion as previously described [See, Mesirca, P., et al. Nat Commun 5, 4664 (2014)]. In this step, the tissue was gently resuspended with a polished Pasteur pipette in this solution for 9-13 minutes at 37° C. SAN samples were then washed three times in a modified “Kraftbrühe” solution, containing (in mM): 70 glutamic acid, 80 KOH, 20 KCl, 10 γ-Hydroxybutyric acid sodium salt, 10 KH2PO4, 10 HEPES-KOH, 10 taurine, 1 mg/ml albumin, 0.1 EGTA-KOH (pH 7.2). […] Cells were then gradually exposed to increasing concentrations of calcium, following a “Ca^2+ readaptation” protocol [Mesirca et al., 2014, supra]. […]
FIG. 5F (Left) presents representative traces of spontaneous APs recorded in single SAN cell from CASQ2 D307H KI mice. […]

Structure (SMILES): Clc1ccccc1C(c1ccccc1)(c1ccccc1)n1cccn1 [TRAM-34, 1-[(2-chlorophenyl)diphenylmethyl]-1H-pyrazole]
- T type and L type Ca2+ currents (two inward humps) [1]: does not alter the voltage-gated Ca2+ currents
- cells with suppression of the pacing (normal hiPSC-CMs): 10 out of 14
- maximal diastolic potential (MDP) (normal hiPSC-CMs): depolarized the maximal diastolic potential
- slope of diastolic depolarization (DD) (normal hiPSC-CMs): significantly decreased the slope of diastolic depolarization
- If and INCX currents (If and INCX currents): unaffected
- DD slope (SAN cells): markedly reduced the DD slope
- MDP (SAN cells): depolarized the MDP
- beating rate (SAN cells): decreased the beating rate
- cells in which pacing activity stopped (SAN cells): 3 out of 7
- number of DADs (CPVT2 hiPSC-CMs): drastically reduced the number of DADs
- spontaneous activity (CPVT2 hiPSC-CMs): reversible cessation of the spontaneous activity
- occurrence of DADs [2]: drastically reduced
